Experimental data: patent US9938316B2, “Selective inhibitors of α2 isoform of Na,K-ATPase and use thereof for reduction of intra-ocular pressure and as cardiotonic agents” (priority 2013, dated 2018)

How the values were obtained:
Experiment in all cases: biochemical
[1] = target: T1, Na,K-ATPase α2β2 isoform complex (Homo sapiens, UniProt P50993)
T1 construct: made in house; host or cells: Pichia pastoris SMD1165
Source text: (§1) Human β1, β2 and β3 were cloned into the pHIL-D2 expression vector containing the human α1 or α2. pHIL-D2 expression vectors containing porcine (p) α1, human (h) α1 or human α2 with Hisx10 tagged porcine β1 were previously generated (7, 9). Human β1 (Accession: P05026), human β2 (Accession: P14415) and human β3 (Accession: […]) cDNAs in pSD5 vector were a gift from K. Geering Univ. Lausanne Switzerland. The open reading frames and flanking regions of hβ1, hβ2 and hβ3 (in pSD5) were amplified separately by polymerase chain reaction (PCR) using synthetic primers containing BglII and SalI cleavage sites. Each one of the amplified fragments were digested with BglII and SalI and ligated to BglII and SalI treated plasmid pHIL-D2-(pα1/His10pβ1) to generate pHIL-D2 (pα1/His10hβ1or2or3). hβ1, hβ2 and hβ3 containing fragments were excised from pHIL-D2-(pα1/His10hβ1or2or3) and subcloned into pHIL-D2-(hα1/His10pβ1) or pHIL-D2-(hα2/His10pβ1) to produce pHIL-D2-(hα1/His10hβ1or2or3) and pHIL-D2-(hα2/His10hβ1or2or3). The newly created plasmids were analyzed for correct integration and correct sequence of the insert by restriction enzymatic digestions and sequencing. DNA of each construct was prepared in large quantities in E. coli XL-1 Blue for Pichia pastoris transformation.
(§2) Inhibition of Na,K-ATPase activity of the detergent-soluble α1β1, α2β1, and α3β1 complexes by CG's was determined as described (6) using either the αβ or αβFXYD1 complexes. […] The K0.5K was estimated by varying K concentration in a medium containing a fixed total K+choline chloride of 60 mM, and constant NaCl of 140 mM. Curves were fitted to the Hill function v=Vmax*[S]^n/([S]^n+K^n), where S is the K concentration, n is the Hill coefficient and K^n is K0.5K. For comparison of different curves the ratio v/Vmax for each curve was calculated and replotted. In experiments to assess inhibition of Na,K-ATPase activity by cardiac glycosides of the present invention, the percent inhibition VCG/V0 was calculated and Ki values were obtained by fitting the data to the function VCG/V0=Ki/([CG]+Ki)+ c. Inhibition was estimated in 3-8 separate experiments and average Ki values ±SEM were calculated. Significance of differences between Kiα1 and Kiα2 was calculated by the unpaired Student's t-test (p values). […] P values <0.05 were considered significant.

[2] = test system: Na,K-ATPase α2β2 isoform complex; parameters: species or system human; conditions: ratio of Ki, Table 6
Source text: as §1, §2

[3] = target: T2, Na,K-ATPase α2β3 isoform complex (Homo sapiens, UniProt P50993)
T2 construct: made in house; host or cells: Pichia pastoris SMD1165
Source text: as §1, §2

[4] = target: Na,K-ATPase α2β1 isoform complex (Homo sapiens, UniProt P50993); type: biochemical; parameters: made in house; host or cells: Pichia pastoris SMD1165; conditions: Ki, nM ± SEM α2β1, Table 6
Procedure: Methods for transformation, culture of P. pastoris clones, protein expression of Na,K-ATPase human isoforms (α1β1, α2β1, α3β1), membrane preparation, solubilization of membranes in DDM, and purification on BD-Talon beads have been described in detail (6-9, 11, 25). In initial experiments the three purified isoform complexes (0.3-0.5 mg/ml) were eluted from the BD-Talon beads in a solution containing Imidazole 170 mM, NaCl 100 mM; Tricine.HCl 20 mM pH 7.4; C12E8, 0.1 mg/ml; SOPS 0.07 mg/ml cholesterol 0.01 mg/ml, glycerol 25%. In later experiments the isoforms complexes were reconstituted with purified FXYD1 on the BD-Talon beads together as described in detail in (10, 11) prior to elution of α1β1FXYD1, α2β1FXYD1 and α3β1FXYD1 complexes. The proteins were stored at −80° C. Protein concentration was determined with BCA (B9643 Sigma).
as §2

CC1CN(C)CCC(OC2C(O)CC(OC3C(O)CC(OC4CCC5(C)C(CCC6C5CC(O)C5(C)C(C7=CC(=O)OC7)CCC65O)C4)OC3C)OC2C)O1 (stereo not shown) [DMe] was tested, and the Ki [1] was 20.4 ± 1.8 nM, the “Selectivity α1β1/α2/β2” value [2] was 5.07 and the Ki [3] was 10.8 ± 0.6 nM. The Ki [4] was 15.3 ± 1.2 nM.
